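Where inhibition never reached the appropriate level, the endpoint shown equals the highest concentration tested. Otherwise, values were interpolated linearly from a five-concentration, 48-hour dose response in 96-well plates. TGI is the concentration that stops growth completely.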 Where a SMILES comes first, the peptide text is derived from it. Bridges are numbered along the chain shown (N, C = ends). [ ]: non-standard residue; d: D form. Aib = CC(C)(N)C(=O)O; βAla = NCCC(=O)O
Tests used:
Experiment in all cases: inhibition of tumour cell growth, NCI panel, 48 h
NCI-H23 lung = tested on: NCI-H23 lung
SNB-75 CNS = tested on: SNB-75 CNS
HCT-116 colon = tested on: HCT-116 colon
NCI/ADR-RES ovarian = tested on: NCI/ADR-RES ovarian
BT-549 breast = tested on: BT-549 breast
TK-10 renal = tested on: TK-10 renal
KM12 colon = tested on: KM12 colon
RPMI-8226 leukemia = tested on: RPMI-8226 leukemia
SK-MEL-2 melanoma = tested on: SK-MEL-2 melanoma
ACHN renal = tested on: ACHN renal
HCT-15 colon = tested on: HCT-15 colon
MCF7 breast = tested on: MCF7 breast
OVCAR-8 ovarian = tested on: OVCAR-8 ovarian
COLO 205 colon = tested on: COLO 205 colon
HT29 colon = tested on: HT29 colon
SF-295 CNS = tested on: SF-295 CNS
U251 CNS = tested on: U251 CNS
NCI-H522 lung = tested on: NCI-H522 lung
SK-MEL-28 melanoma = tested on: SK-MEL-28 melanoma
SK-MEL-5 melanoma = tested on: SK-MEL-5 melanoma
UACC-257 melanoma = tested on: UACC-257 melanoma
OVCAR-4 ovarian = tested on: OVCAR-4 ovarian
NCI-H460 lung = tested on: NCI-H460 lung
T-47D breast = tested on: T-47D breast
MDA-N = tested on: MDA-N
LOX IMVI melanoma = tested on: LOX IMVI melanoma
SF-268 CNS = tested on: SF-268 CNS
M14 melanoma = tested on: M14 melanoma
SK-OV-3 ovarian = tested on: SK-OV-3 ovarian
SW-620 colon = tested on: SW-620 colon
K-562 leukemia = tested on: K-562 leukemia
CAKI-1 renal = tested on: CAKI-1 renal
MDA-MB-231 breast = tested on: MDA-MB-231 breast
SNB-19 CNS = tested on: SNB-19 CNS
A549 NSCLC = tested on: A549 NSCLC
UACC-62 melanoma = tested on: UACC-62 melanoma
OVCAR-5 ovarian = tested on: OVCAR-5 ovarian
UO-31 renal = tested on: UO-31 renal
HOP-62 NSCLC = tested on: HOP-62 NSCLC
NCI-H226 lung = tested on: NCI-H226 lung
786-0 renal = tested on: 786-0 renal
PC-3 prostate = tested on: PC-3 prostate
MALME-3M melanoma = tested on: MALME-3M melanoma
DU-145 prostate = tested on: DU-145 prostate
MOLT-4 leukemia = tested on: MOLT-4 leukemia
IGROV1 ovarian = tested on: IGROV1 ovarian
OVCAR-3 ovarian = tested on: OVCAR-3 ovarian
EKVX NSCLC = tested on: EKVX NSCLC
SF-539 CNS = tested on: SF-539 CNS
RXF 393 renal = tested on: RXF 393 renal
HS 578T breast = tested on: HS 578T breast
HOP-92 NSCLC = tested on: HOP-92 NSCLC
CCRF-CEM leukemia = tested on: CCRF-CEM leukemia
MDA-MB-435 = tested on: MDA-MB-435
A498 renal = tested on: A498 renal
SN12C renal = tested on: SN12C renal

Work on `CC1(C)NC(=O)C(NC(=O)C(N)CC(=O)O)CCCCNC(=O)CCNC1=O` (stereo unspecified) (H-DK[Aib][βAla]; lactam 2-C; configuration not given here) yielded a TGI (NCI-H23 lung) of over 100 µM, a TGI (SNB-75 CNS) of over 100 µM and a TGI (HCT-116 colon) of over 100 µM. It also gave a TGI (NCI/ADR-RES ovarian) of over 100 µM, a TGI (BT-549 breast) of over 100 µM and a TGI (TK-10 renal) of over 100 µM. For the same compound, the TGI (KM12 colon) was over 100 µM, the TGI (RPMI-8226 leukemia) was over 100 µM and the TGI (SK-MEL-2 melanoma) was over 100 µM. The TGI (ACHN renal) was over 100 µM, the TGI (HCT-15 colon) was over 100 µM and the TGI (MCF7 breast) was over 100 µM. The TGI (OVCAR-8 ovarian) was over 100 µM, the TGI (COLO 205 colon) was over 100 µM and the TGI (HT29 colon) was over 100 µM. For the same compound, the TGI (SF-295 CNS) was over 100 µM, the TGI (U251 CNS) was over 100 µM and the TGI (NCI-H522 lung) was over 100 µM. For the same compound, the TGI (SK-MEL-28 melanoma) was over 100 µM, the TGI (SK-MEL-5 melanoma) was over 100 µM and the TGI (UACC-257 melanoma) was over 100 µM. For the same compound, the TGI (OVCAR-4 ovarian) was over 100 µM, the TGI (NCI-H460 lung) was over 100 µM and the TGI (T-47D breast) was over 100 µM. The TGI (MDA-N) was over 100 µM, the TGI (LOX IMVI melanoma) was over 100 µM and the TGI (SF-268 CNS) was over 100 µM. It also gave a TGI (M14 melanoma) of over 100 µM, a TGI (SK-OV-3 ovarian) of over 100 µM and a TGI (SW-620 colon) of over 100 µM. For the same compound, the TGI (K-562 leukemia) was over 100 µM, the TGI (CAKI-1 renal) was over 100 µM and the TGI (MDA-MB-231 breast) was over 100 µM. For the same compound, the TGI (SNB-19 CNS) was over 100 µM, the TGI (A549 NSCLC) was over 100 µM and the TGI (UACC-62 melanoma) was over 100 µM. For the same compound, the TGI (OVCAR-5 ovarian) was over 100 µM, the TGI (UO-31 renal) was over 100 µM and the TGI (HOP-62 NSCLC) was over 100 µM. It also gave a TGI (NCI-H226 lung) of over 100 µM, a TGI (786-0 renal) of over 100 µM and a TGI (PC-3 prostate) of over 100 µM. It also gave a TGI (MALME-3M melanoma) of over 100 µM, a TGI (DU-145 prostate) of over 100 µM and a TGI (MOLT-4 leukemia) of over 100 µM. It also gave a TGI (IGROV1 ovarian) of over 100 µM, a TGI (OVCAR-3 ovarian) of over 100 µM and a TGI (EKVX NSCLC) of over 100 µM. The TGI (SF-539 CNS) was over 100 µM, the TGI (RXF 393 renal) was over 100 µM and the TGI (HS 578T breast) was over 100 µM. It also gave a TGI (HOP-92 NSCLC) of over 100 µM, a TGI (CCRF-CEM leukemia) of over 100 µM and a TGI (MDA-MB-435) of over 100 µM. The TGI (A498 renal) was over 100 µM.
Compound `CC1(C)OC2C(COC(c3ccccc3)(c3ccccc3)c3ccccc3)OC(c3c[nH]c4c(N)ncnc34)C2O1` (stereo unspecified) has a TGI (SNB-75 CNS) of 19.6 µM, a TGI (HCT-116 colon) of 15.9 µM and a TGI (NCI/ADR-RES ovarian) of 29 µM. It also gave a TGI (SK-MEL-2 melanoma) of 29.3 µM, a TGI (ACHN renal) of 13.3 µM and a TGI (HCT-15 colon) of 15.2 µM. It also gave a TGI (OVCAR-8 ovarian) of 21.7 µM, a TGI (COLO 205 colon) of 23.9 µM and a TGI (HT29 colon) of 7.15 µM. The TGI (SF-295 CNS) was 7.29 µM, the TGI (NCI-H522 lung) was 17.8 µM and the TGI (SN12C renal) was 15.4 µM. The TGI (SK-MEL-5 melanoma) was 3.05 µM, the TGI (UACC-257 melanoma) was 17.5 µM and the TGI (OVCAR-4 ovarian) was 23.3 µM. It also gave a TGI (NCI-H460 lung) of 10.5 µM, a TGI (T-47D breast) of 17.2 µM and a TGI (MDA-N) of 11 µM. The TGI (LOX IMVI melanoma) was 3.26 µM, the TGI (SF-268 CNS) was 21.4 µM and the TGI (M14 melanoma) was 9.44 µM. For the same compound, the TGI (SK-OV-3 ovarian) was 17.5 µM, the TGI (SW-620 colon) was 14.1 µM and the TGI (MDA-MB-231 breast) was 27.4 µM. It also gave a TGI (A549 NSCLC) of 13.9 µM, a TGI (UACC-62 melanoma) of 4.21 µM and a TGI (HOP-62 NSCLC) of 16.1 µM. It also gave a TGI (786-0 renal) of 4.37 µM, a TGI (PC-3 prostate) of 10.5 µM and a TGI (MALME-3M melanoma) of 16.8 µM. For the same compound, the TGI (DU-145 prostate) was 18.9 µM, the TGI (IGROV1 ovarian) was 17 µM and the TGI (OVCAR-3 ovarian) was 9.26 µM. For the same compound, the TGI (EKVX NSCLC) was 21.8 µM, the TGI (HS 578T breast) was 28.4 µM and the TGI (HOP-92 NSCLC) was 18.5 µM.

Reference: PubChem BioAssay (NCI)
